Values quoted from earlier work as cited in patent EP1790727A2, “Proteins and nucleic acids encoding same” (Curagen Corporation, priority 2000, dated 2002).
Like-named read-outs stand apart in the source and are kept apart here.

Key:
[1] = tested on: neutrophil; details: in vitro
[2] = in vivo, mouse paw
[3] = biological target: MgATP-actin (Homo sapiens, UniProt P68133); details: but not CaATP-actin
[4] = for increased reepithelialization over saline controls: topically or intraperitoneally
[5] = tested on: keratinocyte; details: after 4-5 h; as little as 10 pg of Tbeta4

Substance	neutrophil chemotaxis [1]	carrageenin-induced edema [2]	proteolysis at Gly(46) on subdomain 2, faster when Tbeta(4) is bound [3]	wound contraction more than controls ([4]; by day 7)	collagen deposition and angiogenesis in the treated wounds ([4]; rat, in vivo)	increased reepithelialization over saline controls ([4]; at 4 d)	increased reepithelialization over saline controls ([4]; at 7 d post-wounding)	migration stimulated over migration with medium alone [5]
thymosin beta4 sulfoxide	inhibited	potent inhibitor						
thymosin beta4 [Tbeta4]		not	> 12 times	at least 11%	Increased	42%	≤ 61%	2-3 fold
